Results published in BindingDB's records for patent US20240335420 (Eurofarma, 2024).

Columns and labels:
[1] = target: Sodium channel protein type 10 subunit alpha (Homo sapiens, UniProt Q9Y5Y9); assay: In Vitro Assay (Protocol 1)
Description: (§1) Compounds of Formula (I), were diluted in eight concentrations in the extracellular solution composed of physiological saline, buffered with HEPES (mM): NaCl, 137; KCl, 4; CaCl2, 3.8; MgCl2, 1; HEPES, 10; Glucose, 10; pH 7.4. The […], 50; CsF, 90; MgCl2, 5; EGTA, 5; HEPES, 10; pH 7.2. The duration of exposure of each compound with the cells expressing Nav 1.7 or Nav 1.8 was at least five minutes and the assays were performed at room temperature.The measurements of the sodium currents of Nav 1.8 and Nav 1.7 were obtained using the voltage protocols described below:Protocol 1: A holding voltage of −90 mV was established followed by a voltage phase of 200 ms to −120 mV, followed by a voltage step of 10 mV for 1 second for Nav 1.8 or 0 mV for Nav 1.7, followed by a step of −100 mV for 20 ms, followed by a step of 20 ms for 10 mV for Nav 1.8 or 0 mV for Nav 1.7 (TP1A) before returning to the holding voltage of −90 mV.Protocol 2: A holding voltage of −100 mV was established followed by an inactivation voltage step at −40 mV for 8 seconds, followed by a −100 mV step for […], followed by a 20 ms step for 10 mV for Nav 1.8 or 0 mV for Nav 1.7 (TP1A) before returning to the holding voltage of −100 mV.Protocols were repeated at a frequency of 0.1 Hz and current amplitude was quantified over the TP1A phase log. The variation in the peak amplitude of the current was evaluated according to the Formula described below, after exposure of the cells expressing the channels, at each concentration of the different compounds:%Block=(1-(ITP1A,molecule/ITP1A,basal)×100%,where |TP1A, basal, and |TP1A, molecule represent the entry peaks of sodium currents into TP1A prior to exposure to the compound and in the presence of the compound, respectively.

[2] = target: Sodium channel protein type 9 subunit alpha (Homo sapiens, UniProt Q15858); assay: In Vitro Assay (Protocol 1)
Chain of Sodium channel protein type 9 subunit alpha (Q15858 whole entry): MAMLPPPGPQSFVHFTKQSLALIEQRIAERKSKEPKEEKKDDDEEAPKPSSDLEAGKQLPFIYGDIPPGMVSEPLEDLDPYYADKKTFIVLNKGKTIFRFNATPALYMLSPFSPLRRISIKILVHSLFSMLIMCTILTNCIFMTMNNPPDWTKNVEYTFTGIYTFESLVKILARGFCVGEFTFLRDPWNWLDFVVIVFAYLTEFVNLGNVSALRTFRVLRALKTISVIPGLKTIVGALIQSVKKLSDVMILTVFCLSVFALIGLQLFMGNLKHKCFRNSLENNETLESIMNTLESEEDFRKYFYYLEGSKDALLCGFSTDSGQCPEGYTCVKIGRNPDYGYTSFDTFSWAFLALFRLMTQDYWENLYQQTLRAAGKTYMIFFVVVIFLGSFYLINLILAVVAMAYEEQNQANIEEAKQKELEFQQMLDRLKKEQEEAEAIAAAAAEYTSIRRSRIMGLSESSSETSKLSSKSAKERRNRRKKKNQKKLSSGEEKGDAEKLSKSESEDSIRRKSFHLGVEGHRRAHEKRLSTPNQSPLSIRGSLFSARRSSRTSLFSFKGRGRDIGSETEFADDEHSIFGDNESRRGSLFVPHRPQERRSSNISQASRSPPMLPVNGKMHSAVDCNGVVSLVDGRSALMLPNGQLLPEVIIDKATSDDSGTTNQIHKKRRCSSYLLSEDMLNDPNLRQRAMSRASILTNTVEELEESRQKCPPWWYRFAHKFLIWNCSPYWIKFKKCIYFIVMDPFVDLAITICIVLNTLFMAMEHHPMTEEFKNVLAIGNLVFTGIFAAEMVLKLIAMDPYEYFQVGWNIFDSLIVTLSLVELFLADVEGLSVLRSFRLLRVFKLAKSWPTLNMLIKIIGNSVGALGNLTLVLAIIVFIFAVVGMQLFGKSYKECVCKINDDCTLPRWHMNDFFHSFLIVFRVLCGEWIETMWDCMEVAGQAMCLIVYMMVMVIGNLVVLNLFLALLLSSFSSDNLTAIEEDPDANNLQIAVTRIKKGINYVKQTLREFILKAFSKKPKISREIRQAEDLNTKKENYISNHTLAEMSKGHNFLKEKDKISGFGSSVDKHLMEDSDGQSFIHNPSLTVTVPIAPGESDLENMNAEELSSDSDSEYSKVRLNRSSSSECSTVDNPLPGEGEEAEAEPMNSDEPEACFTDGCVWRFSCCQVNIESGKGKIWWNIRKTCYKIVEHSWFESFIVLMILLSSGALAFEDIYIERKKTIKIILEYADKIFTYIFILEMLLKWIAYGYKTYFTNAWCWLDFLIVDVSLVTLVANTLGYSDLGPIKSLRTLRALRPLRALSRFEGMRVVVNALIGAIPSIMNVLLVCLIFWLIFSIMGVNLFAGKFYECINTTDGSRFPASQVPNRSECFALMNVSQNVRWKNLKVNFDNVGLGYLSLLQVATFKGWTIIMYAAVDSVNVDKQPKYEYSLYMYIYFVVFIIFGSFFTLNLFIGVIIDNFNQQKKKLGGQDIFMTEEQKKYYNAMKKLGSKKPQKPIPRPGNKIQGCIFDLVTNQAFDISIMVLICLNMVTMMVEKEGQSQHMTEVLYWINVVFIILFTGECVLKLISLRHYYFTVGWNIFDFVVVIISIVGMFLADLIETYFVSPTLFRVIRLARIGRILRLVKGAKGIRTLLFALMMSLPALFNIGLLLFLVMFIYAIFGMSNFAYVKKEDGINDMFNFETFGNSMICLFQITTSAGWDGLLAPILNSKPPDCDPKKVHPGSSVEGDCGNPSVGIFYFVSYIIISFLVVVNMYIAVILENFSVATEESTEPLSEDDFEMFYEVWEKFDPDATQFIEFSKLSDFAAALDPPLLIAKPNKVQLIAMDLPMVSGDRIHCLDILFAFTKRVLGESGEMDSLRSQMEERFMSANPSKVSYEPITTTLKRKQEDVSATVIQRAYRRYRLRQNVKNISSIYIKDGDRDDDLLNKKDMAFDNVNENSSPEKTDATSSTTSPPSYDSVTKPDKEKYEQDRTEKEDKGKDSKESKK
Description: as §1

Chain of Sodium channel protein type 10 subunit alpha (Q9Y5Y9 whole entry): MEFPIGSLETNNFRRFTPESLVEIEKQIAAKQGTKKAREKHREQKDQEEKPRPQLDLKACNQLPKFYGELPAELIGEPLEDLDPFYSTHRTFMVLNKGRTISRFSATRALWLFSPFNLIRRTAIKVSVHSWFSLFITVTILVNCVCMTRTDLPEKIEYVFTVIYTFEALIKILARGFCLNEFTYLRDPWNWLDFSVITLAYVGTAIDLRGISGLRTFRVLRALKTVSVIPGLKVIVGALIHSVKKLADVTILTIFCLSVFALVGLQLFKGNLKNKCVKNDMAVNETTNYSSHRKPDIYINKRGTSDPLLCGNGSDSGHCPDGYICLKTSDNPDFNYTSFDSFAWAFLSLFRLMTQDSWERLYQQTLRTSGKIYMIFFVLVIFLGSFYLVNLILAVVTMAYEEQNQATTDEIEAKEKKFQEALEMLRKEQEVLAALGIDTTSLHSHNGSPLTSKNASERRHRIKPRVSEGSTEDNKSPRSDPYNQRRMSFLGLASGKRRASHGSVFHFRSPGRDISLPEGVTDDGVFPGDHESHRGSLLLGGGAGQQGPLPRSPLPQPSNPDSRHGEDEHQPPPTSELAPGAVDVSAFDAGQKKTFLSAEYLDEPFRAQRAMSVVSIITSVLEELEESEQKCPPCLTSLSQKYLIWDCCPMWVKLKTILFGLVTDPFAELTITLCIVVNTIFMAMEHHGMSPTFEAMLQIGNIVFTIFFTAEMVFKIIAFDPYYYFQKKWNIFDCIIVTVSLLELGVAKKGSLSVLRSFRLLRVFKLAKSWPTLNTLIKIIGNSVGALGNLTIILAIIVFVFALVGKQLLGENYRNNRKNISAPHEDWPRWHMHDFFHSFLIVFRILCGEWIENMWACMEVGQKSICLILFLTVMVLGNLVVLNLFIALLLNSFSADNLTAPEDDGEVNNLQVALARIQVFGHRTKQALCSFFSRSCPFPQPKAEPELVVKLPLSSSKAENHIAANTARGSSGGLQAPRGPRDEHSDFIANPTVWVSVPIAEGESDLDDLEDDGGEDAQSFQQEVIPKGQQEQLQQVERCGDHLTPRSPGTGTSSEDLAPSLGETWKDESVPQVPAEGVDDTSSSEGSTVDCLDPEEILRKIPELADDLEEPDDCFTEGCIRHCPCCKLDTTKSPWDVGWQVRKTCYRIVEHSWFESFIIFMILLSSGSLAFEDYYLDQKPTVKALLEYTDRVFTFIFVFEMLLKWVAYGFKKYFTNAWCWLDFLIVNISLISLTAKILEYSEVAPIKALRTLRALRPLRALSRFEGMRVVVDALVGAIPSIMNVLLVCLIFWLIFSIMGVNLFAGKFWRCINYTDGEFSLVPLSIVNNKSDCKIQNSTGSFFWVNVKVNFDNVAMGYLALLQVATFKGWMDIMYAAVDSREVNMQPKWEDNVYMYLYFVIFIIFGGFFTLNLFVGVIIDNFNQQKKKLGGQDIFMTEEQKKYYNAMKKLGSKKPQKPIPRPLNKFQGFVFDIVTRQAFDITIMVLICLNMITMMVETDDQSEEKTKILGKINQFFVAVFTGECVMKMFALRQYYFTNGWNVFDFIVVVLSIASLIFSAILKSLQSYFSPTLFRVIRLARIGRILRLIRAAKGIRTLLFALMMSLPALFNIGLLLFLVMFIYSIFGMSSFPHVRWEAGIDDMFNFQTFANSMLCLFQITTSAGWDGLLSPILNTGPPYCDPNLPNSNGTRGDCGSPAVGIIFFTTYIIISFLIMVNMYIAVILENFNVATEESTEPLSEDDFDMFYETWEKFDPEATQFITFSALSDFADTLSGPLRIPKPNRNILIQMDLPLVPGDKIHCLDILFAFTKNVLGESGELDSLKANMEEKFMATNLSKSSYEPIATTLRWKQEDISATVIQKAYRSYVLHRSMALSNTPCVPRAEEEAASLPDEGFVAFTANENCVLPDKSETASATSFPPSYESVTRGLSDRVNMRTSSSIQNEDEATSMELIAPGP

| Structure (SMILES) | IC50 [1] | IC50 [2] |
| --- | --- | --- |
| O=C(N/N=C/c1cccs1)c1ccc(-c2ccc(Cl)cc2)o1 [US20240335420, Compound 1] | > 30 µM | > 30 µM |
| COc1cc(/C=N/NC(=O)c2cccc(-c3ccc(Cl)cc3)n2)cc(OC)c1 [US20240335420, Compound 10] | 1.37 µM | 0.362 µM |
